In patent publication US11787785B2 (NOVARTIS AG, priority 2021, dated 2023):

Target: T1, WIZ protein (HiBit-WIZ fusion protein) (Homo sapiens, UniProt O95785+Q96SW2)
T1 construct: expressed in transfected cells
Assay: Quantification of WIZ protein levels in HiBit tag fusion protein assay (WIZ HiBit assay in 293T cells)
Format: cell-based
Conditions: for Dmax at 25 µM / remaining activity at 25 µM: HEK-293T, 293T cells; for Dmax at 25 µM: 100 − Amax, read-out: % degradation of WIZ (100 − Amax); for remaining activity at 25 µM: DMSO-normalized, curve-fitted percentage of WIZ-HiBit remaining at 25 uM, read-out: WIZ Amax; for DC50: WIZ HiBit assay in 293T cells, 10-point, 5-fold dose response, highest concentration 25 μM, about 18 hours, read-out: WIZ AC50
Protocol: The HiBit system from Promega was used to develop high-throughput and quantitative assays to measure changes in WIZ protein levels in response to compounds. The HiBit tag was derived from a split Nanoluciferase and has the following protein sequence: […] (SEQ ID NO: 1). The complementary fragment of Nanoluciferase (known as LgBit, from Promega), was added to the HiBit tag to form an active Nanoluciferase enzyme whose activity can be precisely measured. In this way, the levels of a fusion protein with the HiBit tag can be quantified in cell lysates.
Lentiviral vectors, based on the Invitrogen™ pLenti6.2/V5 DEST backbone were constructed that places the HiBit tag upstream of WIZ and expressed the fusion protein from an HSVTK promotor.
To ensure moderate and consistent expression of the HiBit-WIZ fusion protein across all cells in the population, stable cell lines were constructed from cells harboring a single copy of the construct. Lentivirus packaged with the constructs were made using the ViraPower™ kit from Invitrogen™. 293T cells from ATCC (Catalog number: CRL-3216), were infected with the virus at low multiplicity of infection and selected by 5 μg/mL blasticidin in culture media for 2 weeks.
The levels of HiBit-WIZ tagged fusion proteins in compound-treated cell lines were measured as follows:
On day 1, cells were diluted to 1.0×10^6 cells/ml in normal growth medium. 20 μL of cell suspension were plated in each well of a solid white 384-well plate. Plates were incubated overnight in a 37° C. and 5% CO2 humidified tissue culture incubator.
On day 2, serial dilutions of compounds were made in 384-well plates. Compound plates were set up with DMSO in columns 1, 2, 23, 24, and 10-point compound dilution series in column 3-12 and column 13-22. 10 mM stock solution of compound were placed into column 3 or 13 and a 1:5 serial dilution was carried out until there was a 10-point dilution series per compound. 50 nL of diluted compounds were transferred into the plated cells by Echo® (Labcyte) acoustic transfer. The highest concentration of compound was 25 μM. Plates were incubated overnight (about 18 hours) in a 37° C. and 5% CO2 humidified tissue culture incubator.
On day 3, plates were removed from the incubator and allowed to equilibrate at room temperature for 60 minutes. HiBit substrate (Nano-Glo® HiBit Lytic Detection System, Promega Catalogue number: N3050) was added as described by the manufacturers protocols. Plates were incubated at room temperature for 30 minutes and luminescence was read using an EnVision® reader (PerkinElmer®). Data was analyzed and visualized using the Spotfire® software package.
WIZ Degradation Activity of Compounds (Table 1)
WIZ Amax reflects the DMSO-normalized, curve-fitted percentage of WIZ-HiBit remaining at 25 uM. It was calculated by normalizing […] controls to 100%, parametric curve fitting of the dose response data (10-point, 5-fold), followed by calculation of response at 25 uM using the fitted equation (nd=not determined).

T1 sequence (O95785 whole entry, the tested form may be a part): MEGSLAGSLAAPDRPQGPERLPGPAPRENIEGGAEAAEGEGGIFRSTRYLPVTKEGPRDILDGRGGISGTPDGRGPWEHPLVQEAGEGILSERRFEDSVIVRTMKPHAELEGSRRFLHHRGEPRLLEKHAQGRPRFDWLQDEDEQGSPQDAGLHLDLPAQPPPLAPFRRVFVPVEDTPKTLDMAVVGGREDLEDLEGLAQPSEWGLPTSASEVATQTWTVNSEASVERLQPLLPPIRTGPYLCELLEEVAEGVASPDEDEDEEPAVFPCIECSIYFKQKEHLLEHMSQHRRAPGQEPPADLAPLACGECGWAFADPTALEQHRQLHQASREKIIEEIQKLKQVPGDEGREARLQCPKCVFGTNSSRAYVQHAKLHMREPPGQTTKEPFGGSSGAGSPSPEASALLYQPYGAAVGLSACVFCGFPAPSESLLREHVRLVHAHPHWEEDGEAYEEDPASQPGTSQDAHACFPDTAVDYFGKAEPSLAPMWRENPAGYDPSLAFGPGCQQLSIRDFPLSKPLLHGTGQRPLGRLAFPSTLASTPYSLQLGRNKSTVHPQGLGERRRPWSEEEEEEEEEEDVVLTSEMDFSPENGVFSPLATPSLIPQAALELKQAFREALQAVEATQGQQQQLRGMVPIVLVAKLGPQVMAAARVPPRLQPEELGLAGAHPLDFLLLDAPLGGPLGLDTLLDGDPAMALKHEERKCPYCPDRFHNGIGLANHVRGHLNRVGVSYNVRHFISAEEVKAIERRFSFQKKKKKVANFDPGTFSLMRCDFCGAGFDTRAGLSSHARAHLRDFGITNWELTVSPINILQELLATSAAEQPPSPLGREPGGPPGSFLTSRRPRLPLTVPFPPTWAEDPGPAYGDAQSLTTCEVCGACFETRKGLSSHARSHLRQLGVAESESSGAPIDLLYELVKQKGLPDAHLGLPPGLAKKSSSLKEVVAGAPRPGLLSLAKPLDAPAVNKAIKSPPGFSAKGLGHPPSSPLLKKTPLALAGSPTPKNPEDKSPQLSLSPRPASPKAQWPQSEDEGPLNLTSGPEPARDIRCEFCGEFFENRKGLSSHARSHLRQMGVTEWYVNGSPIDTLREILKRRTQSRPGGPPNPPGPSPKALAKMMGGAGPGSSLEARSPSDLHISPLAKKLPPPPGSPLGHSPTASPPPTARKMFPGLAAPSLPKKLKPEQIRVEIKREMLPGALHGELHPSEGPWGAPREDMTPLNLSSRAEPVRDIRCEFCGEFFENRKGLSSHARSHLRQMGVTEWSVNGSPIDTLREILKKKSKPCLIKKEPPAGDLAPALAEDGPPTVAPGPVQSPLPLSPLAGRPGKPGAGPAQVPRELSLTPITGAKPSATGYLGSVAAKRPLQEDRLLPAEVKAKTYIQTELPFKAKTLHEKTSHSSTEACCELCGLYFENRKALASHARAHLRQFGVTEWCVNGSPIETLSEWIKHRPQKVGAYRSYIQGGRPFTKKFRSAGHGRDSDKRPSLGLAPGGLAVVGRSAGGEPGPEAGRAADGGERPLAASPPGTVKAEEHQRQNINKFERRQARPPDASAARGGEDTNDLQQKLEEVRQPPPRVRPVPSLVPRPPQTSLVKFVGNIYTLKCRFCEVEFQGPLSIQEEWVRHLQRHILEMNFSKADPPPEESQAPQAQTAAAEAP
T1 sequence (Q96SW2 whole entry, the tested form may be a part): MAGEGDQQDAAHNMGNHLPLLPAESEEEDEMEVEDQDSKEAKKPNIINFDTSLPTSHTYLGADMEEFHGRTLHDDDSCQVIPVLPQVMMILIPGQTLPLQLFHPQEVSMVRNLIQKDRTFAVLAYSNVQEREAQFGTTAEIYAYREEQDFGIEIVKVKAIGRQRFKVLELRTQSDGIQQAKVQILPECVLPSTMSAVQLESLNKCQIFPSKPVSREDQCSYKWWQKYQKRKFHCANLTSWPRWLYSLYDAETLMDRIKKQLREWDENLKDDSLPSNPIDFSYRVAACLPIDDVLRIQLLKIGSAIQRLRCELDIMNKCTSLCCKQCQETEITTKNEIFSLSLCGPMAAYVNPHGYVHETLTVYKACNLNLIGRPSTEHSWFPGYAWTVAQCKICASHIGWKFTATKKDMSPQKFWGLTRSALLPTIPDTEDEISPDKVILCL
T1 sequence (Q16531 whole entry partner, the tested form may be a part): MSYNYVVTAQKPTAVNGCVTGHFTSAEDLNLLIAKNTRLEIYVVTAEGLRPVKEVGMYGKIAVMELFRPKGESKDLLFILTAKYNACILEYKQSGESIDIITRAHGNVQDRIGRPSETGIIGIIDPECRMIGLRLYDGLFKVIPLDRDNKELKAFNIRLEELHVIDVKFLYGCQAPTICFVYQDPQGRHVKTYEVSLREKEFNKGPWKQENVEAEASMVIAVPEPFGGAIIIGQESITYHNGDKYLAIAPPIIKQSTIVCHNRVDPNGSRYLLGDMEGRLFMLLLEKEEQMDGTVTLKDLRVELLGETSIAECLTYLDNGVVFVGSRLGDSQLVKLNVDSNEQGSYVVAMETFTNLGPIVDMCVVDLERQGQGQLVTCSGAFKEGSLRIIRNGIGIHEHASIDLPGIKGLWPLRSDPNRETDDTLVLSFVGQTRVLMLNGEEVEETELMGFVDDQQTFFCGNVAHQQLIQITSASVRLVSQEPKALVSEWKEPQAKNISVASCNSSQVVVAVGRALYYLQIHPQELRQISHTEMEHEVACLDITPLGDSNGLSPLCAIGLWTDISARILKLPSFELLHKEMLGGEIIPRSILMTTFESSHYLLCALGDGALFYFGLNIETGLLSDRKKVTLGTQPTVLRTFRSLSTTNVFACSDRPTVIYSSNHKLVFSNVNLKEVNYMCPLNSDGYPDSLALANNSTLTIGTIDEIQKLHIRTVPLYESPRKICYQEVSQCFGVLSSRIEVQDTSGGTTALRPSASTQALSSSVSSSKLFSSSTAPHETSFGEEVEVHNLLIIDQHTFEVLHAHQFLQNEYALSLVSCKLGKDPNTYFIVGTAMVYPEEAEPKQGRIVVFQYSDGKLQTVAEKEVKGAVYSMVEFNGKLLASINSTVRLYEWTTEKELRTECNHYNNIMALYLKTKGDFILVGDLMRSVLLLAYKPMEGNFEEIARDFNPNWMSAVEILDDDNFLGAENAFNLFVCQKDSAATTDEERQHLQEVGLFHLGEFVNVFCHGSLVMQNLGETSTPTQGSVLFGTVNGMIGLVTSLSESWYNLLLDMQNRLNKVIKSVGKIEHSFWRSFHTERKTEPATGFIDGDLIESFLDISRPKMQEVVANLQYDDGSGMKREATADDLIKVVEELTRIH

SMILES | Dmax at 25 µM [%] | remaining activity at 25 µM [%] | DC50 [nM]
C[C@H]1C[C@H](Cc2ccn3ncc(N4CCC(=O)NC4=O)c3c2)CCN1CC1CCCC1 [Example 144] | 87 | 13 | 8
C[C@H]1CN(CC2CCC2)CCN1Cc1ccn2ncc(N3CCC(=O)NC3=O)c2c1 [Example 224] | 45 | 55 | 854
CO[C@H]1CC[C@@H](CN2CCN(Cc3ccn4ncc(N5CCC(=O)NC5=O)c4c3)CC2)CC1 [Example 180, 1-(5-((4-(((1s,4s)-4-methoxycyclohexyl)methyl)piperazin-1-yl)methyl)pyrazolo[1,5-a]pyridin-3-yl)dihydropyrimidine-2,4(1H,3H)-dione] | 81 | 19 | 78
C[C@H]1CN(Cc2ccn3ncc(N4CCC(=O)NC4=O)c3c2)CCN1C(=O)C1CC1 [Example 340, (S)-1-(5-((4-(cyclopropanecarbonyl)-3-methylpiperazin-1-yl)methyl)pyrazolo[1,5-a]pyridin-3-yl)dihydropyrimidine-2,4(1H,3H)-dione] | 32 | 68 | 862
O=C1CCN(c2cnn3ccc(CC4CNC4)cc23)C(=O)N1 [Example 133, 1-(5-(azetidin-3-ylmethyl)pyrazolo[1,5-a]pyridin-3-yl)dihydropyrimidine-2,4(1H,3H)-dione] | 21 | 79 | 4800
C[C@H]1C[C@H](Cc2ccn3ncc(N4CCC(=O)NC4=O)c3c2)CCN1S(=O)(=O)N(C)C [Example 292] | 83 | 17 | 11
O=C1CCN(c2cnn3ccc(CN4CCN(CC(F)(F)C(F)F)CC4)cc23)C(=O)N1 [Example 173] | 42 | 58 | 771
O=C1CCN(c2cnn3ccc(CN4C[C@H]5C[C@@H]4CN5CC4CCCCC4)cc23)C(=O)N1 [Example 234, 1-(5-(((1R,4R)-5-(cyclohexylmethyl)-2,5-diazabicyclo[2.2.1]heptan-2-yl)methyl)pyrazolo[1,5-a]pyridin-3-yl)dihydropyrimidine-2,4(1H,3H)-dione] | 42 | 58 | 942
C[C@H]1C[C@H](Cc2ccn3ncc(N4CCC(=O)NC4=O)c3c2)CCN1C1COC1 [Example 279, 1-(5-(((2S,4R)-2-methyl-1-(oxetan-3-yl)piperidin-4-yl)methyl)pyrazolo[1,5-a]pyridin-3-yl)dihydropyrimidine-2,4(1H,3H)-dione] | 91 | 9 | 26
O=C1CCN(c2cnn3ccc(CC4(F)CCN(CC5CCC5)CC4)cc23)C(=O)N1 [Example 125, 1-(5-((1-(cyclobutylmethyl)-4-fluoropiperidin-4-yl)methyl)pyrazolo[1,5-a]pyridin-3-yl)dihydropyrimidine-2,4(1H,3H)-dione] | 55 | 45 | 596
C[C@H]1CN(Cc2ccn3ncc(N4CCC(=O)NC4=O)c3c2)CCN1CC1CCC(C)(C)CC1 [Example 200, (S)-1-(5-((4-((4,4-dimethylcyclohexyl)methyl)-3-methylpiperazin-1-yl)methyl)pyrazolo[1,5-a]pyridin-3-yl)dihydropyrimidine-2,4(1H,3H)-dione] | 90 | 10 | 8
C[C@H]1C[C@H](Cc2ccn3ncc(N4CCC(=O)NC4=O)c3c2)CCN1C(=O)C1CCC1 [Example 289] | 79 | 21 | 33
O=C1CCN(c2cnn3ccc(CN4CCN(CC56CC7CC(CC(C7)C5)C6)CC4)cc23)C(=O)N1 [Example 194, 1-(5-((4-(((3r,5r,7r)-adamantan-1-yl)methyl)piperazin-1-yl)methyl)pyrazolo[1,5-a]pyridin-3-yl)dihydropyrimidine-2,4(1H,3H)-dione] | 89 | 11 | 3
O=C1CCN(c2cnn3ccc(CN4CCN(Cc5ccccc5)CC4)cc23)C(=O)N1 [Example 165] | 69 | 31 | 198

Second part, the compound after the results:

Dmax at 25 µM [%] | remaining activity at 25 µM [%] | DC50 [nM] | SMILES
40 | 60 | 165 | O=C1CCN(c2cnn3ccc(CC4CCN(C(=O)CCc5ccccc5)CC4)cc23)C(=O)N1 [Example 102]
62 | 38 | 1740 | COc1ccc(CN2CCC(Cc3ccn4ncc(N5CCC(=O)NC5=O)c4c3)CC2)cc1 [Example 61, 1-(5-((1-(4-methoxybenzyl)piperidin-4-yl)methyl)pyrazolo[1,5-a]pyridin-3-yl)dihydropyrimidine-2,4(1H,3H)-dione]
69 | 31 | 131 | COCCS(=O)(=O)N1CCC(Cc2ccn3ncc(N4CCC(=O)NC4=O)c3c2)CC1 [Example 92]
94 | 6 | 32 | CO[C@H]1CC[C@@H](CN2CCC(Cc3ccn4ncc(N5CCC(=O)NC5=O)c4c3)CC2)CC1 [Example 65, 1-(5-((1-(((1s,4s)-4-methoxycyclohexyl)methyl)piperidin-4-yl)methyl)pyrazolo[1,5-a]pyridin-3-yl)dihydropyrimidine-2,4(1H,3H)-dione]
78 | 22 | 31 | O=C1CCN(c2cnn3ccc(CC4CCN(CC5(F)CCCCC5)CC4)cc23)C(=O)N1 [Example 107, 1-(5-((1-((1-fluorocyclohexyl)methyl)piperidin-4-yl)methyl)pyrazolo[1,5-a]pyridin-3-yl)dihydropyrimidine-2,4(1H,3H)-dione]
79 | 21 | 25 | CC(C)CS(=O)(=O)N1CCC(Cc2ccn3ncc(N4CCC(=O)NC4=O)c3c2)CC1 [Example 87]
84 | 16 | 29 | C[C@H]1CN(Cc2ccn3ncc(N4CCC(=O)NC4=O)c3c2)CCN1CC1CCCC1 [Example 212]
71 | 29 | 523 | O=C1CCN(c2cnn3ccc(CC4CCN(CC5CCCO5)CC4)cc23)C(=O)N1 (stereo not drawn) [Example 15, 1-(5-((1-((tetrahydrofuran-2-yl)methyl)piperidin-4-yl)methyl)pyrazolo[1,5-a]pyridin-3-yl)dihydropyrimidine-2,4(1H,3H)-dione]
77 | 23 | 144 | O=C1CCN(c2cnn3ccc(CC4CCN(Cc5ccc(F)cc5)CC4)cc23)C(=O)N1 [Example 23, 1-(5-((1-(4-fluorobenzyl)piperidin-4-yl)methyl)pyrazolo[1,5-a]pyridin-3-yl)dihydropyrimidine-2,4(1H,3H)-dione]
88 | 12 | 6 | C[C@H]1CN(Cc2ccn3ncc(N4CCC(=O)NC4=O)c3c2)CCN1C1CC2(CCC2)C1 [Example 335]
83 | 17 | 162 | CCS(=O)(=O)N1CC[C@@H](Cc2ccn3ncc(-n4ccc(=O)[nH]c4=O)c3c2)C[C@@H]1C [Example 356, 1-(5-(((2S,4R)-1-(ethylsulfonyl)-2-methylpiperidin-4-yl)methyl)pyrazolo[1,5-a]pyridin-3-yl)pyrimidine-2,4(1H,3H)-dione]
53 | 47 | 1180 | COC[C@H]1CN(Cc2ccn3ncc(N4CCC(=O)NC4=O)c3c2)CCN1CC1CCCCC1 [Example 244, (R)-1-(5-((4-(cyclohexylmethyl)-3-(methoxymethyl)piperazin-1-yl)methyl)pyrazolo[1,5-a]pyridin-3-yl)dihydropyrimidine-2,4(1H,3H)-dione]
